Laboratory results published in patent US7074789B2, “Kinase inhibitors” (Amgen Inc., priority 1999, dated 2006).

Columns and labels:
Type in all cases: biochemical
Lyn = molecular target: T1, Lyn (Homo sapiens, UniProt P07948); assay: Kinase inhibition assay (33P transfer), Lyn; conditions: Table 6, Lyn-1 kinase inhibition class
T1 construct: Kinases are expressed as either kinase domains or full length constructs; made in house
Procedure, shortened: (§1)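 Using immobilised substrate copolymers (poly(Glu,Tyr) 4:1; poly(Arg,Ser) 3:1) and [33P]ATP, purified fusion kinases were allowed to react; plates were then rinsed in 0.5% phosphoric acid and counted in a scintillation detector. Half-maximal inhibition of label transfer defines IC50.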

Fyn = molecular target: T2, Fyn (Homo sapiens, UniProt P06241); assay: Kinase inhibition assay (33P transfer), Fyn; conditions: read-out: Fyn-1
T2 construct: Kinases are expressed as either kinase domains or full length constructs; made in house
Procedure, shortened: as §1

Zap-70 = molecular target: T3, Zap-70 (Homo sapiens, UniProt P43403); assay: Kinase inhibition assay (33P transfer), Zap-70; conditions: Table 3; read-out: Zap-1
T3 construct: Kinases are expressed as either kinase domains or full length constructs; made in house
T3 sequence (P43403 1-619): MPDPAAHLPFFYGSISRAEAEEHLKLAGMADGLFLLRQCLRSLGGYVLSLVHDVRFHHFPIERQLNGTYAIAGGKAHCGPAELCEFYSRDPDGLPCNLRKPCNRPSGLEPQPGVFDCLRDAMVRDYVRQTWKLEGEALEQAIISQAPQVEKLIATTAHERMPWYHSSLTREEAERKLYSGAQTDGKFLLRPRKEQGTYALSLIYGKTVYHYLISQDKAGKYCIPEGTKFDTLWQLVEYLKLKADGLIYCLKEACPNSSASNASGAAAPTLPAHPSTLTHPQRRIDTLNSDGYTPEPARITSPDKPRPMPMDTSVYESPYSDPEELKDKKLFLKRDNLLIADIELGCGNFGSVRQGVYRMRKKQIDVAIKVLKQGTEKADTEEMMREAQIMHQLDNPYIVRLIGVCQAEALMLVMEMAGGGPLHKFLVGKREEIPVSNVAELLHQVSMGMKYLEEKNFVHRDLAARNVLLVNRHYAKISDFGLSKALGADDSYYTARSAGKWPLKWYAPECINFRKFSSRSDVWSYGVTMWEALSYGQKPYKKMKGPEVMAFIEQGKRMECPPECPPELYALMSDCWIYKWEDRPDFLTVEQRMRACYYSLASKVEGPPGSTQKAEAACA
Procedure, shortened: (§2)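 Radiometric readout: 33P incorporated into surface-bound poly(Glu,Tyr) 4:1 or poly(Arg,Ser) 3:1 is counted by liquid scintillation after a 0.5% phosphoric acid wash. Enzymes were GST or polyHis fusions (kinase domain or full length) from E. coli or High Five insect cells.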

Itk = molecular target: T4, Itk (Homo sapiens, UniProt Q08881); assay: Kinase inhibition assay (33P transfer), Itk; conditions: Table 3; read-out: Itk-1
T4 construct: Kinases are expressed as either kinase domains or full length constructs; made in house
T4 sequence (Q08881 1-620): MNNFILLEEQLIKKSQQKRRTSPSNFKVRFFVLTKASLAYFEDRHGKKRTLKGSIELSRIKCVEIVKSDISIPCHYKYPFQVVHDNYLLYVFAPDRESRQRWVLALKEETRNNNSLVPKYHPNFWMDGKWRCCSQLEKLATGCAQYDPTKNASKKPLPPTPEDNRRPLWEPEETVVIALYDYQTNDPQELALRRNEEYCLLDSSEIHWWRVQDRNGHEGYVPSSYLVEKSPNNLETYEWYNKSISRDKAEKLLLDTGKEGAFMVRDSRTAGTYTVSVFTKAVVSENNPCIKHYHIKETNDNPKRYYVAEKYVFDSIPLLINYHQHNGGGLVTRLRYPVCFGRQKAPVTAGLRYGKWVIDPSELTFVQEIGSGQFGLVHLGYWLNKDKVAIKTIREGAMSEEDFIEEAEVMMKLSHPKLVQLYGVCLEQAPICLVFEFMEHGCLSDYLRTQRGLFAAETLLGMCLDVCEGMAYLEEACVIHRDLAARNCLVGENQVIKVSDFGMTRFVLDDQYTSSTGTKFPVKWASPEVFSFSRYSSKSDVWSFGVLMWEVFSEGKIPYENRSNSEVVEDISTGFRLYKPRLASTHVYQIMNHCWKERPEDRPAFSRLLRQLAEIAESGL
Procedure, shortened: as §1

Kdr = molecular target: T5, Kdr (Homo sapiens, UniProt P35968); assay: Kinase inhibition assay (33P transfer), Kdr; conditions: Table 3; read-out: KDR-1
T5 construct: Kinases are expressed as either kinase domains or full length constructs; made in house
Procedure, shortened: as §2

IGFR-1 = molecular target: T6, IGFR-1 (Homo sapiens, UniProt P08069); assay: Kinase inhibition assay (33P transfer), IGFR-1; conditions: Table 2, kinase inhibition class
T6 construct: Kinases are expressed as either kinase domains or full length constructs; made in house

ErbB4 = molecular target: T7, ErbB4 (Homo sapiens, UniProt Q15303); assay: Kinase inhibition assay (33P transfer), ErbB4; conditions: read-out: ErbB4-1
T7 construct: Kinases are expressed as either kinase domains or full length constructs; made in house

Ret-1 = molecular target: T8, Ret-1 (Homo sapiens, UniProt P07949); assay: Kinase inhibition assay (33P transfer), Ret; conditions: Table 6, Ret-1 kinase inhibition class
T8 construct: Kinases are expressed as either kinase domains or full length constructs; made in house

ErbB2 = molecular target: T9, ErbB2 (Homo sapiens, UniProt P04626); assay: Kinase inhibition assay (33P transfer), ErbB2; conditions: read-out: ErbB2-2
T9 construct: Kinases are expressed as either kinase domains or full length constructs; made in house
Procedure, shortened: as §1

T5 sequence (P35968 20-1356, species assumed): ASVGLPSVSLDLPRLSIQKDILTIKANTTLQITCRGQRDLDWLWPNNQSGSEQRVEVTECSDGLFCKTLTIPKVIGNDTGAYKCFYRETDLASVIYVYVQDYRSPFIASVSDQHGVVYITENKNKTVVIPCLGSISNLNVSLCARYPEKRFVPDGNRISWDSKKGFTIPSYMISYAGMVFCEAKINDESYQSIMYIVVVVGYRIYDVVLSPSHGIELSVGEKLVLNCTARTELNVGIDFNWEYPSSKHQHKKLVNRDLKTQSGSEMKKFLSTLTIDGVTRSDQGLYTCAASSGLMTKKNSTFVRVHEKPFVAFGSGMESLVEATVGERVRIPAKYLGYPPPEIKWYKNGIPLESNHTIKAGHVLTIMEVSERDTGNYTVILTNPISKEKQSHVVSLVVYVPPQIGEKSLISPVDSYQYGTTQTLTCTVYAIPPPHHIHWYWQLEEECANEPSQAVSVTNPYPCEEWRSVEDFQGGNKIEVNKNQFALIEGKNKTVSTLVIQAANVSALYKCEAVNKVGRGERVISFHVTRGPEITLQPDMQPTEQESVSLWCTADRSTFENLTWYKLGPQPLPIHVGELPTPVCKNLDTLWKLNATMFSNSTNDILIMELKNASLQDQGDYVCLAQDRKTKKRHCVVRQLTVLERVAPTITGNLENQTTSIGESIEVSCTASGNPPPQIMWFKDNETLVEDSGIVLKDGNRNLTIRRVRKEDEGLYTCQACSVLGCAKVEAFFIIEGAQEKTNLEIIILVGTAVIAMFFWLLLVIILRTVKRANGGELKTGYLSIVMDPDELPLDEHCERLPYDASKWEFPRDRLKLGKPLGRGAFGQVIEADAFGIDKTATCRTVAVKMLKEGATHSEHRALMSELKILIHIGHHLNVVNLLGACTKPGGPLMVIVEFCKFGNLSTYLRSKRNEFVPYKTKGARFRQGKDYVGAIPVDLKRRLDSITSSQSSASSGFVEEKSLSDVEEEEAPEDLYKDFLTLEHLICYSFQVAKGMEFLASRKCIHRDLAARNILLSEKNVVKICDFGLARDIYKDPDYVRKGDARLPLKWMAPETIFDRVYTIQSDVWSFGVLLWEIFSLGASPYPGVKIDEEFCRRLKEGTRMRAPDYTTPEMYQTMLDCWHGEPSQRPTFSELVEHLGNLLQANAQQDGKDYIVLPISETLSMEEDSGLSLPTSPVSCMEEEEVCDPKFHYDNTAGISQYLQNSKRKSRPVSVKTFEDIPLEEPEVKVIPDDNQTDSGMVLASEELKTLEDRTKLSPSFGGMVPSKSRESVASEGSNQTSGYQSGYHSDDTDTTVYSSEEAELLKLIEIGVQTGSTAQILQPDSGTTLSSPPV
T8 sequence (P07949 29-1114): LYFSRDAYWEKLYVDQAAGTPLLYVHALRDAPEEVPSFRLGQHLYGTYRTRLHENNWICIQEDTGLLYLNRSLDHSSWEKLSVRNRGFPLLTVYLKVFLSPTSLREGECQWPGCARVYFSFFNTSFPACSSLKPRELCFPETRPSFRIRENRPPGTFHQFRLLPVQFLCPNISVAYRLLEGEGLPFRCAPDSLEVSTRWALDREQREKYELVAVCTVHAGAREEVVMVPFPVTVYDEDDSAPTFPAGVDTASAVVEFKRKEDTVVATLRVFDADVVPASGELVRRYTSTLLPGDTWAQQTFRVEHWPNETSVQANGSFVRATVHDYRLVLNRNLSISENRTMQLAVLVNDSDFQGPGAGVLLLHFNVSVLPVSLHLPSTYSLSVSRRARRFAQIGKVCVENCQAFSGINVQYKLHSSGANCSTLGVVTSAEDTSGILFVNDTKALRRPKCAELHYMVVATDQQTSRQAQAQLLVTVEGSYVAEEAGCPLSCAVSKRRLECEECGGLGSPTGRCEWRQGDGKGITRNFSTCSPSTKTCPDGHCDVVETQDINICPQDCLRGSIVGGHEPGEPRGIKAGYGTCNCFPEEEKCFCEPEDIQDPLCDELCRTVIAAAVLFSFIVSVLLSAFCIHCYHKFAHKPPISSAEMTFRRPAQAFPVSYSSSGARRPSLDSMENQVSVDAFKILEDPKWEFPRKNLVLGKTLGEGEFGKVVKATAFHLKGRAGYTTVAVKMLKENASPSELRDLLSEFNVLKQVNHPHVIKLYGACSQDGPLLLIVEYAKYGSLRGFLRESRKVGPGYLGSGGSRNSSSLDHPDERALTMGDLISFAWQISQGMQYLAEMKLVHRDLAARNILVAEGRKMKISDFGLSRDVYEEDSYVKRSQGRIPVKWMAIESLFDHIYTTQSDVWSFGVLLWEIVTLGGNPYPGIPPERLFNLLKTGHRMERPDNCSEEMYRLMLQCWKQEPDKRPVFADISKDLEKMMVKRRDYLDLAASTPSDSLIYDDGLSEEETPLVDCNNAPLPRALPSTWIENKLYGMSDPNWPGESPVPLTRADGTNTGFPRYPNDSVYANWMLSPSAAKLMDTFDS
T1 sequence (P07948 whole entry, species assumed, the tested form may be a part): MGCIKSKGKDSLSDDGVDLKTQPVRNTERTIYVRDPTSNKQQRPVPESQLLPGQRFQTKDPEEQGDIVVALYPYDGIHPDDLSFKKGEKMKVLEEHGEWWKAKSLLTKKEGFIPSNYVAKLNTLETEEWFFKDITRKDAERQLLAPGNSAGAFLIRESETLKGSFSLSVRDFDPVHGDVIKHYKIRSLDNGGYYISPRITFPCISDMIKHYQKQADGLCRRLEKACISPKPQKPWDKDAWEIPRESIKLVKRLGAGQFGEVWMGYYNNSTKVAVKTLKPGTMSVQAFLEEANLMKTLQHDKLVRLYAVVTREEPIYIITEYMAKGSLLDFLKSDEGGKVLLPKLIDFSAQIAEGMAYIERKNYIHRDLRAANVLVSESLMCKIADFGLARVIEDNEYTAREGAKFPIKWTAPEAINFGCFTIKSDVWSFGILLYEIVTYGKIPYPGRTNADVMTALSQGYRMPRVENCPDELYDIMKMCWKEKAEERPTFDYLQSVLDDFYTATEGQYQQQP
T9 sequence (P04626 23-1255, species assumed): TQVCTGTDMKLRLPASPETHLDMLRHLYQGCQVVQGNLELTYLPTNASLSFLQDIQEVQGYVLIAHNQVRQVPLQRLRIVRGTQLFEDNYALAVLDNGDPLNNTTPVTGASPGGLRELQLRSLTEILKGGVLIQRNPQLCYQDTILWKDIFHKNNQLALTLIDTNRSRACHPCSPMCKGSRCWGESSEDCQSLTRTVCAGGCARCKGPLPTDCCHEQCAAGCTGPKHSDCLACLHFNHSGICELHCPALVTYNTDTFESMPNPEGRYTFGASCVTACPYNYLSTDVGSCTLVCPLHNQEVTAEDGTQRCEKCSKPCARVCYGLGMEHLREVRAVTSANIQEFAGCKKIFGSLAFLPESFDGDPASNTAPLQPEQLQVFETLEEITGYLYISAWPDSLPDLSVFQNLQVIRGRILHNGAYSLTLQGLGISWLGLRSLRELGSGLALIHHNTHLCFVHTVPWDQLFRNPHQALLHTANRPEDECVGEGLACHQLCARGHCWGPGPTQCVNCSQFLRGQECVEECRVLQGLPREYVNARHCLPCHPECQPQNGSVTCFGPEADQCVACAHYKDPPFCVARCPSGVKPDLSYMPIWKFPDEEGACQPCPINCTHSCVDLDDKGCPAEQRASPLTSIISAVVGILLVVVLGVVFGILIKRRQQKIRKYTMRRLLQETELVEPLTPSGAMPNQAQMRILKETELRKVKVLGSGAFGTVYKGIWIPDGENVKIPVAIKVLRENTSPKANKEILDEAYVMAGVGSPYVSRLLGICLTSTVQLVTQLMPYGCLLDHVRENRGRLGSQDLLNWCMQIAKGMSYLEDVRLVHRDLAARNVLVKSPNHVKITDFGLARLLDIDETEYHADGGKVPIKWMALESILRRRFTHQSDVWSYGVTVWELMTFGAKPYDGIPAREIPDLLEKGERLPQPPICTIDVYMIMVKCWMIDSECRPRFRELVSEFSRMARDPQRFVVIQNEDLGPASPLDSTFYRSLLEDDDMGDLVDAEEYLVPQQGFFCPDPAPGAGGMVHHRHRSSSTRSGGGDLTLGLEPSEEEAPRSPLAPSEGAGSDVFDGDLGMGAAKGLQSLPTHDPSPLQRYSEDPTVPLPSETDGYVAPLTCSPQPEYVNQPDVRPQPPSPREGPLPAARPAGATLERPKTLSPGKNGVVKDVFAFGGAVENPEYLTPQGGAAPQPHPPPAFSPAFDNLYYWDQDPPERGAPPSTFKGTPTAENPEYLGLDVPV
T2 sequence (P06241 whole entry, species assumed, the tested form may be a part): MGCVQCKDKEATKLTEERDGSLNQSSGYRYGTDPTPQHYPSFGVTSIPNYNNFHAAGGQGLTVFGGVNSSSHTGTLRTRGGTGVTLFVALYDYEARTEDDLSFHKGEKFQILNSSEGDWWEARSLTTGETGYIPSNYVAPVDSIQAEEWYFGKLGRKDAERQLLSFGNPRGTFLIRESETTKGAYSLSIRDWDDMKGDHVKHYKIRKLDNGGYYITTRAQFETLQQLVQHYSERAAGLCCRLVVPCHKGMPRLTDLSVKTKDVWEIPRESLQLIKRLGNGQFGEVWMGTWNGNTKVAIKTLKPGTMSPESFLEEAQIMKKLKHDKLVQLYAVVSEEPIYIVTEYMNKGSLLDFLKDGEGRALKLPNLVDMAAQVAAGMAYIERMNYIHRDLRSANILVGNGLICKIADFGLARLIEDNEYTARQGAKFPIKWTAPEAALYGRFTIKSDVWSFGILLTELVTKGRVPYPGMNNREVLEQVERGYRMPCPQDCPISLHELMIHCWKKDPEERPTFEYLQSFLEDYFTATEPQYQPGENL

| IC50 (Lyn) [µM] | IC50 (Fyn) [µM] | IC50 (Zap-70) [µM] | IC50 (Itk) [µM] | IC50 (Kdr) [µM] | IC50 (IGFR-1) [µM] | IC50 (ErbB4) [µM] | IC50 (Ret-1) [µM] | IC50 (ErbB2) [µM] | Structure (SMILES) |
| --- | --- | --- | --- | --- | --- | --- | --- | --- | --- |
| < 1.08 | < 1.08 | > 12.2 | 1.08 to 6.5 | < 1.08 | 1.08 to 6.5 | 1.08 to 6.5 | < 1.08 | – | COc1cc(Nc2ncnc(Nc3cccc(O)c3)n2)cc(OC)c1OC [Compound 78] |
| > 11.9 | > 11.9 | > 11.9 | > 11.9 | < 1.06 | 1.06 to 6.36 | > 11.9 | 1.06 to 6.36 | – | COC(=O)c1cccc(Nc2ncnc(Nc3cc(-c4ccco4)n[nH]3)n2)c1 [Compound 344] |
| < 0.898 | < 0.898 | > 10.1 | > 10.1 | < 0.898 | 5.39 to 7.86 | 0.898 to 5.39 | < 0.898 | – | COc1cc(Nc2ncnc(Nc3ccc(Oc4ccccc4)cc3)n2)cc(OC)c1OC [Compound 29] |
| – | – | > 11.6 | > 11.6 | < 1.03 | < 1.03 | 1.03 to 6.19 | < 1.03 | 1.03 to 6.19 | COc1cc(Nc2ncnc(Nc3ccc(Cl)cc3)n2)cc(OC)c1OC [Compound 72] |
| 1.01 to 6.05 | 6.05 to 8.83 | > 11.4 | > 11.4 | 1.01 to 6.05 | < 1.01 | – | > 11.4 | – | COc1cc(Nc2ncnc(Nc3ccc(C(N)=O)cc3)n2)cc(OC)c1OC [Compound 33] |
| < 0.925 | 0.925 to 5.55 | 8.1 to 10.4 | > 10.4 | 0.925 to 5.55 | < 0.925 | > 10.4 | > 10.4 | – | COc1cc(Nc2ncnc(Nc3cccc(Br)c3)n2)cc(OC)c1OC [Compound 75] |
| 0.871 to 5.22 | 5.22 to 7.62 | 5.22 to 7.62 | > 9.79 | < 0.871 | > 9.79 | > 9.79 | 7.62 to 9.79 | – | COc1cc(Nc2ncnc(Nc3ccc(OCc4ccccc4)cc3)n2)cc(OC)c1OC [Compound 926] |
| 1.09 to 6.51 | > 12.2 | 9.5 to 12.2 | > 12.2 | 1.09 to 6.51 | 1.09 to 6.51 | – | > 12.2 | – | COc1cc(Nc2ncnc(Nc3ccc(N)cc3)n2)cc(OC)c1OC [Compound 92] |
| < 0.986 | < 0.986 | > 11.1 | > 11.1 | < 0.986 | < 0.986 | > 11.1 | > 11.1 | – | COc1cc(Nc2ncnc(Nc3ccc(F)c(Cl)c3)n2)cc(OC)c1OC [Compound 61] |
| 1.02 to 6.1 | > 11.4 | > 11.4 | 8.9 to 11.4 | < 1.02 | 1.02 to 6.1 | 1.02 to 6.1 | 1.02 to 6.1 | – | COc1cc(Nc2ncnc(Nc3ccc4cn[nH]c4c3)n2)cc(OC)c1OC [Compound 70] |
| 1.04 to 6.26 | 1.04 to 6.26 | > 11.7 | > 11.7 | < 1.04 | 1.04 to 6.26 | – | 1.04 to 6.26 | – | COc1ccc(Nc2ncnc(Nc3cc(OC)c(OC)c(OC)c3)n2)cc1 [Compound 89] |
| < 0.991 | 0.991 to 5.94 | > 11.1 | 8.67 to 11.1 | < 0.991 | 0.991 to 5.94 | – | 0.991 to 5.94 | – | COc1cc(Nc2ncnc(Nc3ccc(O)cc3Cl)n2)cc(OC)c1OC [Compound 77] |
| > 10.4 | 8.06 to 10.4 | > 10.4 | 0.921 to 5.52 | < 0.921 | > 10.4 | > 10.4 | < 0.921 | – | COc1cc(Nc2ncnc(-n3cc(CC(N)=O)c4ccccc43)n2)cc(OC)c1OC [Compound 353] |
| < 1.02 | 1.02 to 6.1 | > 11.4 | < 1.02 | < 1.02 | < 1.02 | 1.02 to 6.1 | > 11.4 | – | COc1cc(Nc2ncnc(Nc3ccc4[nH]ncc4c3)n2)cc(OC)c1OC [Compound 79] |
| < 1.04 | < 1.04 | > 11.7 | 9.13 to 11.7 | < 1.04 | 1.04 to 6.26 | – | 1.04 to 6.26 | – | COc1ccccc1Nc1ncnc(Nc2cc(OC)c(OC)c(OC)c2)n1 [Compound 90] |
| 0.991 to 5.95 | 8.68 to 11.2 | 8.68 to 11.2 | > 11.2 | 0.991 to 5.95 | – | 0.991 to 5.95 | 5.95 to 8.68 | < 0.991 | COc1cc(Nc2ncnc(Nc3ccc4ccccc4c3)n2)cc(OC)c1OC [Compound 96] |
| 1.01 to 6.07 | > 11.4 | 6.07 to 8.85 | > 11.4 | 1.01 to 6.07 | < 1.01 | – | > 11.4 | – | COc1cc(Nc2ncnc(Nc3ccc(C(C)C)cc3)n2)cc(OC)c1OC [Compound 66] |
| 1.08 to 6.46 | > 12.1 | > 12.1 | > 12.1 | 1.08 to 6.46 | 1.08 to 6.46 | > 12.1 | 1.08 to 6.46 | – | COc1cc(Nc2ncnc(Nc3ccccc3F)n2)cc(OC)c1OC [Compound 65] |
| < 1.09 | 9.53 to 12.2 | > 12.2 | > 12.2 | 1.09 to 6.53 | 9.53 to 12.2 | – | > 12.2 | – | COc1cc(Nc2ncnc(Nc3ccccc3C)n2)cc(OC)c1OC [Compound 67] |
| < 0.913 | > 10.3 | > 10.3 | > 10.3 | < 0.913 | < 0.913 | > 10.3 | 0.913 to 5.48 | – | COc1cc(Nc2ncnc(Nc3cc(Cl)c(O)c(Cl)c3)n2)cc(OC)c1OC [Compound 68] |
| 8.65 to 11.1 | 0.989 to 5.93 | > 11.1 | > 11.1 | < 0.989 | – | – | 0.989 to 5.93 | – | COc1cc(Nc2ncnc(Nc3cnc4ccccc4c3)n2)cc(OC)c1OC [Compound 99] |
| 1.13 to 6.79 | < 1.13 | > 12.7 | > 12.7 | 1.13 to 6.79 | 1.13 to 6.79 | – | 1.13 to 6.79 | 1.13 to 6.79 | COc1cc(Nc2ncnc(Nc3ccccc3)n2)cc(OC)c1OC [Compound 91] |
| 1.01 to 6.05 | 1.01 to 6.05 | > 11.4 | > 11.4 | < 1.01 | < 1.01 | – | 1.01 to 6.05 | – | COc1cc(Nc2ncnc(Nc3ccc(N(C)C)cc3)n2)cc(OC)c1OC [Compound 27] |
| < 1.08 | < 1.08 | > 12.2 | 1.08 to 6.5 | < 1.08 | 1.08 to 6.5 | 1.08 to 6.5 | 1.08 to 6.5 | – | COc1cc(Nc2ncnc(Nc3ccc(O)cc3)n2)cc(OC)c1OC [Compound 85] |
| < 1.01 | < 1.01 | > 11.3 | > 11.3 | < 1.01 | 6.04 to 8.81 | 1.01 to 6.04 | > 11.3 | – | COc1cc(Nc2ncnc(Nc3cc(C)c(O)cc3C)n2)cc(OC)c1OC [Compound 94] |
